ChEMBL document CHEMBL4330129 (Bioorg Med Chem, 2019)
In brackets after ≈: the same amount, converted by molar mass.

Experiments:
[1] = Kinetic solubility of the compound at pH 7.4 by CLND method; assay type: physicochemical; settings: buffer, read-out: Kinetic_solubility
Homo sapiens = species: Homo sapiens; test: Activation of Keap1/Cul3/Nrf2 in NHBE cells assessed as induction of HO-1 gene expression at 10 uM after 24 hrs by RT-PCR analysis relative to SFN; assay type: cell-based
[2] = Binding affinity to FLAG/His-tagged Keap1 (unknown origin)/biotinylated full-length FLAG/His/Tev/Avi-tagged Cul3 (unknown origin) expressed in baculovirus infected Sf9 insect cells measured after 1 hr by TR-FRET assay; set-up: species or system Homo sapiens
Keap1/Nrf2 = Keap1/Nrf2 (Homo sapiens, UniProt Q14145+Q16236); test: Binding affinity to FLAG/His-tagged Keap1 (unknown origin)/biotinylated full-length FLAG/His/Tev/Avi-tagged NRF2 (unknown origin) expressed in baculovirus infected Sf9 insect cells measured after 1 hr by TR-FRET assay
Keap1/Nrf2, sequence (Q16236 whole entry): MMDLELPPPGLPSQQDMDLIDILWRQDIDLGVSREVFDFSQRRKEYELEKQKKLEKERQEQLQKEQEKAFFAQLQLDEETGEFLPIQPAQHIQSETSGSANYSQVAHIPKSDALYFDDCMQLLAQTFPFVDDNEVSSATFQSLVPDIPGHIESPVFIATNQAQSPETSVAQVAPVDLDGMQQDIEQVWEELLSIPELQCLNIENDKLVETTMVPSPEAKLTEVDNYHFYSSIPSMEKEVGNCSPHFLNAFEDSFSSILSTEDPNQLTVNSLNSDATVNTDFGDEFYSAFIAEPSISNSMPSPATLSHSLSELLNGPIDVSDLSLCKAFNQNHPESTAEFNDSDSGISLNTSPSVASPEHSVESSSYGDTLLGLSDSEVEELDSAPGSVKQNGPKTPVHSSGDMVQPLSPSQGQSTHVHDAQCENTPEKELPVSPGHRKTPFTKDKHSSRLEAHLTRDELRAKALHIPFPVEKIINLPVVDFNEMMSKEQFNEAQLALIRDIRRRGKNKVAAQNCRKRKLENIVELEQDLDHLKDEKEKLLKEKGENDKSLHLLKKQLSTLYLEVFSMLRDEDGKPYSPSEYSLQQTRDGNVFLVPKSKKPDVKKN
Keap1/Nrf2, sequence (Q14145 whole entry): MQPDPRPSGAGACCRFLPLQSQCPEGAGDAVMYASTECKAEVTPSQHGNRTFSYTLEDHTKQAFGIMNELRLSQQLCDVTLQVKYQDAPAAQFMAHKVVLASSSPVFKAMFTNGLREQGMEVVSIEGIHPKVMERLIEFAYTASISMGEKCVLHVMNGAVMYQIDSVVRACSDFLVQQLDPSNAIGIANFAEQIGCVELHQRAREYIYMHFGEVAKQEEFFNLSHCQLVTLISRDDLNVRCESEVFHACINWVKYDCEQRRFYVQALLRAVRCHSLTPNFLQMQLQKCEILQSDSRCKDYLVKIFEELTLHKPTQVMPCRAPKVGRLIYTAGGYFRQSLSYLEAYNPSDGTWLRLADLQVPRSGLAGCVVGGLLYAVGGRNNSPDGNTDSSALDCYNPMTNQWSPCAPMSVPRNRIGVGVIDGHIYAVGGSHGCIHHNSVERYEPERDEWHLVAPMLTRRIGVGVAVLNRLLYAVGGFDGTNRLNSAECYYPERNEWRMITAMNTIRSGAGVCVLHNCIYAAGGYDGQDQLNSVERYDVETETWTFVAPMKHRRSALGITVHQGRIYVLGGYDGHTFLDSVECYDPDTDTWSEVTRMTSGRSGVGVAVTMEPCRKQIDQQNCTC

[3] = Lipophilicity, log D of the compound at pH 7.4 by chromatographic method; assay type: physicochemical; settings: buffer

Compound	solubility kinetic [1] [µM]	fold change (FC) (Homo sapiens)	pIC50 [2]	IC50 (Keap1/Nrf2) [µM]	chromatographic logD [3]
CC(C)(C)OC(=O)N1CCC(SC(=S)NCCCCNC(=O)OCc2ccccn2)CC1	80 (≈ 38.6 µg/mL)	1.47	< 4	> 100	5.67
CN(C)CCS(=O)(=O)CCCCN=C=S	376 (≈ 94.1 µg/mL)	3.25	4.4	> 100	2.84
CN(C)CC[S+]([O-])CCCCN=C=S (stereo not given)	≥ 219	0.49	< 4	> 100	1.47
O=C(O)C(F)(F)F.[O-][S+](CCCCN=C=S)CCN1CCOCC1 (stereo not given)	81	0.16	< 4	> 100	1.91
O=C(NCCCCN=C=S)Nc1ccc2c(c1)OCO2	42 (≈ 12.3 µg/mL)	10.5	5	6.31	4.25
CCNC(=O)N1CCC(SC(=S)NCCCCNC(=O)NCc2ccccc2)CC1	255 (≈ 115 µg/mL)	81.8	4.4	63.1	3.43
Cn1cc(CCN=C=S)c2ccccc21	38 (≈ 8.22 µg/mL)	0.04	5.2	10	7.23
CC(C)(C)OC(=O)N1CCC(SC(=S)NCCCCNC(=O)Nc2ccncc2)CC1	85 (≈ 39.8 µg/mL)	20.7	4.6	31.6	4.58
O=C(NCCCCN=C=S)Nc1ccc2nccnc2c1	≥ 356	13.2	5.1	15.8	3.13
CN1CCC(SC(=S)NCCCCNC(=O)NCc2ccccc2)CC1	≥ 451	14.5	4.9	20	2.4
[O-][S+](CCCCN=C=S)c1ccccn1 (stereo not given)	≥ 372	1.17	4.2	31.6	3.16
CN1CCC(SC(=S)NCCCCNC(=O)OCc2ccccc2)CC1	355 (≈ 140 µg/mL)	4.67	5.2	10	3.49
CC(=O)NCCS(=O)(=O)CCCCN=C=S	≥ 422	0.37	4.2	> 100	1.8
O=C(CCc1ccccc1)NCCCCN=C=S	337 (≈ 88.4 µg/mL)	9.84	4.4	25.1	2.59
O=S(=O)(CCCCN=C=S)c1ccccc1	≥ 364	4.31	4.6	50.1	4.92
[O-][S+](CCCCN=C=S)c1ccncc1 (stereo not given)	201 to 224 (≈ 48.3 to 53.8 µg/mL)	15.8 to 15.9	4.4	15.8 to 25.1	2.34 to 3.5
CN1CCC(SC(=S)NCCCCNC(=O)NC2CCCC2)CC1	≥ 245	19.3	4.5	39.8	2.33
Cl.O=C(NCCCCNC(=S)SC1CCNCC1)Nc1ccncc1	281	25.8	4.7	50.1	0.49
CS(=O)(=O)N1CCC(CCN=C=S)C1 (stereo not given)	288 (≈ 67.5 µg/mL)	4.27	4.3	> 100	3.87

Compound	solubility kinetic [1] [µM]	fold change (FC) (Homo sapiens)	pIC50 [2]	IC50 (Keap1/Nrf2) [µM]	chromatographic logD [3]
CC(C)(C)OC(=O)N1CCC(SC(=S)NCCCCNC(=O)NC2CCCC2)CC1	53 (≈ 24.3 µg/mL)	27.3	4.4	> 100	6.1
CC(=O)NCC[S+]([O-])CCCCN=C=S (stereo not given)	≥ 180	0.15	< 4	> 100	1.09
O=C(NCCCCN=C=S)NC1CCCC1	419 (≈ 101 µg/mL)	2.66	4.4	50.1	4.1
Cc1ccccc1[S+]([O-])CCCCN=C=S (stereo not given)	362 (≈ 91.7 µg/mL)	1.3	4.6	63.1	4.69
CS(=O)(=O)N1CCC(CN=C=S)C1 (stereo not given)	≥ 451	0.68	4.1	> 100	3.22
CC(C)(C)OC(=O)N1CCC(SC(=S)NCCCCNC(=O)OCc2ccccc2Cl)CC1	2 (≈ 1.03 µg/mL)	40.3	4.8	2.51	7.72
O=C(NCCCCN=C=S)c1ccncc1	≥ 358	0.93	4.4	> 100	2.86
C[S+]([O-])CCCCNC(=S)SC1CCNCC1.O=C(O)C(F)(F)F (stereo not given)	255	0.34	< 4	> 100	0.22
O=S(=O)(CC1(N2CCC(CN=C=S)C2)COC1)c1ccccc1 (stereo not given)	242 (≈ 85.3 µg/mL)	8.15	4.7	50.1	5.02
CN1CCC(SC(=S)NCC2CCS(=O)(=O)C2)CC1 (stereo not given)	≥ 331	0.38	< 4	> 100	1.03
CN1CCC(SC(=S)NCCCCNC(=O)Nc2ccncc2)CC1	≥ 350	29.8	4.9	20	1.02
CC(C)(C)OC(=O)N1CCC(SC(=S)NCCCCNC(=O)Nc2ccc3nccnc3c2)CC1	42 (≈ 21.8 µg/mL)	100	4.8	15.8	5.02
CN1CCC(SC(=S)NCCCCS(=O)(=O)c2ccncc2)CC1	≥ 419	2	4.5	100	1.56
O=C(NCCCCN=C=S)Nc1ccc2c(c1)OCCO2	131 (≈ 40.3 µg/mL)	0.65	4.9	15.8	4.04
COC(=O)C(C[S+]([O-])CCCCN=C=S)NC(C)=O (stereo not given)	279 (≈ 85.5 µg/mL)	0.11	< 4	> 100	1.61
C[S+]([O-])CCCCNC(=S)SC1CCN(C(=O)OC(C)(C)C)CC1 (stereo not given)	382 (≈ 151 µg/mL)	0.48	4.3	> 100	4.23
CN1CCC(SC(=S)NCCCCNC(=O)OCc2ccccn2)CC1	≥ 385	11.4	4.6	39.8	1.83
CNC(=O)NCCCCN=C=S	≥ 436	1.04	4.1	50.1	2
